Assay results taken from ChEMBL document CHEMBL2380247, “Synthesis and biological evaluation of novel aliphatic amido-quaternary ammonium salts for anticancer chemotherapy: part II” (2013).
Calls of active or inactive are those of the source. The calls are words filed in the database; no cut-off is given here.

Tests used:
NUGC-3 [1] = test: Antiproliferative activity against human NUGC3 cells at 0.3 uM by SRB assay; assay type: functional
NUGC-3 [2] = test: Antiproliferative activity against human NUGC3 cells at 0.1 uM by SRB assay; assay type: functional
NUGC-3 [3] = test: Antiproliferative activity against human NUGC3 cells at 1 uM by SRB assay; assay type: functional
NUGC-3 [4] = test: Antiproliferative activity against human NUGC3 cells at 10 uM by SRB assay; assay type: functional
NUGC-3 [5] = test: Antiproliferative activity against human NUGC3 cells at 3 uM by SRB assay; assay type: functional
MDA-MB-231 [6] = test: Antiproliferative activity against human MDA-MB-231 cells at 0.1 uM by SRB assay; assay type: functional
MDA-MB-231 [7] = test: Antiproliferative activity against human MDA-MB-231 cells at 0.3 uM by SRB assay; assay type: functional
MDA-MB-231 [8] = test: Antiproliferative activity against human MDA-MB-231 cells at 1 uM by SRB assay; assay type: functional
MDA-MB-231 [9] = test: Antiproliferative activity against human MDA-MB-231 cells at 10 uM by SRB assay; assay type: functional
MDA-MB-231 [10] = test: Antiproliferative activity against human MDA-MB-231 cells at 3 uM by SRB assay; assay type: functional
ACHN [11] = test: Antiproliferative activity against human ACHN cells at 0.1 uM by SRB assay; assay type: functional
ACHN [12] = test: Antiproliferative activity against human ACHN cells at 1 uM by SRB assay; assay type: functional
ACHN [13] = test: Antiproliferative activity against human ACHN cells at 0.3 uM by SRB assay; assay type: functional
ACHN [14] = test: Antiproliferative activity against human ACHN cells at 3 uM by SRB assay; assay type: functional
ACHN [15] = test: Antiproliferative activity against human ACHN cells at 10 uM by SRB assay; assay type: functional
NCI-H23 [16] = test: Antiproliferative activity against human NCI-H23 cells at 0.3 uM by SRB assay; assay type: functional
NCI-H23 [17] = test: Antiproliferative activity against human NCI-H23 cells at 0.1 uM by SRB assay; assay type: functional
NCI-H23 [18] = test: Antiproliferative activity against human NCI-H23 cells at 3 uM by SRB assay; assay type: functional
NCI-H23 [19] = test: Antiproliferative activity against human NCI-H23 cells at 1 uM by SRB assay; assay type: functional
NCI-H23 [20] = test: Antiproliferative activity against human NCI-H23 cells at 10 uM by SRB assay; assay type: functional
PC-3 [21] = test: Antiproliferative activity against human PC3 cells at 0.1 uM by SRB assay; assay type: functional
PC-3 [22] = test: Antiproliferative activity against human PC3 cells at 1 uM by SRB assay; assay type: functional
PC-3 [23] = test: Antiproliferative activity against human PC3 cells at 0.3 uM by SRB assay; assay type: functional
PC-3 [24] = test: Antiproliferative activity against human PC3 cells at 3 uM by SRB assay; assay type: functional
HCT-15 [25] = test: Antiproliferative activity against human HCT15 cells at 0.1 uM by SRB assay; assay type: functional
PC-3 [26] = test: Antiproliferative activity against human PC3 cells at 10 uM by SRB assay; assay type: functional
HCT-15 [27] = test: Antiproliferative activity against human HCT15 cells at 0.3 uM by SRB assay; assay type: functional
HCT-15 [28] = test: Antiproliferative activity against human HCT15 cells at 3 uM by SRB assay; assay type: functional
HCT-15 [29] = test: Antiproliferative activity against human HCT15 cells at 1 uM by SRB assay; assay type: functional
HCT-15 [30] = test: Antiproliferative activity against human HCT15 cells at 10 uM by SRB assay; assay type: functional
[31] = biological target: Rho-related GTP-binding protein RhoB (Homo sapiens) (UniProt P62745); test: Transactivation of RhoB in human HeLa cells by luciferase reporter assay; assay type: cell-based
Rho-related GTP-binding protein RhoB (Homo sapiens), sequence (P62745 whole entry): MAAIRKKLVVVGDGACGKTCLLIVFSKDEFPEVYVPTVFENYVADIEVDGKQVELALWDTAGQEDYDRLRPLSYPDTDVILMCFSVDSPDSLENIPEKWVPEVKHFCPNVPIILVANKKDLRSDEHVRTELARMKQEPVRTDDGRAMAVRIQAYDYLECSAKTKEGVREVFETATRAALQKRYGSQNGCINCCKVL

NCI-H23 [32] = test: Antiproliferative activity against human NCI-H23 cells by SRB assay; assay type: functional
NUGC-3 [33] = test: Antiproliferative activity against human NUGC3 cells by SRB assay; assay type: functional
HCT-15 [34] = test: Antiproliferative activity against human HCT15 cells by SRB assay; assay type: functional
ACHN [35] = test: Antiproliferative activity against human ACHN cells by SRB assay; assay type: functional
MDA-MB-231 [36] = test: Antiproliferative activity against human MDA-MB-231 cells by SRB assay; assay type: functional
PC-3 [37] = test: Antiproliferative activity against human PC3 cells by SRB assay; assay type: functional

Compound	growth, % of control at 0.3 µM (NUGC-3 [1])	growth, % of control at 0.1 µM (NUGC-3 [2])	growth, % of control at 1 µM (NUGC-3 [3])	growth, % of control at 10 µM (NUGC-3 [4])	growth, % of control at 3 µM (NUGC-3 [5])	growth, % of control at 0.1 µM (MDA-MB-231 [6])	growth, % of control at 0.3 µM (MDA-MB-231 [7])	growth, % of control at 1 µM (MDA-MB-231 [8])	growth, % of control at 10 µM (MDA-MB-231 [9])	growth, % of control at 3 µM (MDA-MB-231 [10])	growth, % of control at 0.1 µM (ACHN [11])	growth, % of control at 1 µM (ACHN [12])	growth, % of control at 0.3 µM (ACHN [13])	growth, % of control at 3 µM (ACHN [14])	growth, % of control at 10 µM (ACHN [15])	growth, % of control at 0.3 µM (NCI-H23 [16])	growth, % of control at 0.1 µM (NCI-H23 [17])	growth, % of control at 3 µM (NCI-H23 [18])	growth, % of control at 1 µM (NCI-H23 [19])	growth, % of control at 10 µM (NCI-H23 [20])	further results
CCCCCCCCCCCCCCCC(=O)NCCC[N+](C)(C)C	109%	112%	72.8%	20.1%	34.9%	101%	98.3%	96.6%	25.1%	61.6%	97%	91.8%	94.4%	66%	42.5%	104%	106%	67.8%	93%	18.3%	growth, % of control at 0.1 µM (PC-3 [21]): 90.6%; growth, % of control at 1 µM (PC-3 [22]): 62.6%; growth, % of control at 0.3 µM (PC-3 [23]): 85.2%; growth, % of control at 3 µM (PC-3 [24]): 19.1%; growth, % of control at 0.1 µM (HCT-15 [25]): 110%; growth, % of control at 10 µM (PC-3 [26]): -1.77%; growth, % of control at 0.3 µM (HCT-15 [27]): 104%; growth, % of control at 3 µM (HCT-15 [28]): 71.1%; growth, % of control at 1 µM (HCT-15 [29]): 97.4%; growth, % of control at 10 µM (HCT-15 [30]): 26.1%; Activity [31]: Active; GI50 (NCI-H23 [32]): 2150 nM; GI50 (NUGC-3 [33]): 1070 nM; GI50 (HCT-15 [34]): 2560 nM; GI50 (ACHN [35]): 3360 nM; GI50 (MDA-MB-231 [36]): 2180 nM; GI50 (PC-3 [37]): 600 nM
CCCCCCCCCCCCCCCC(=O)N(C)CCC[N+](C)(C)C	68%	97%	4.68%	-38.4%	-31.9%	97.7%	96.1%	76.6%	21.7%	46.6%	91.6%	58.9%	86.8%	39.5%	1.49%	99.2%	98.7%	33.7%	76.5%	-14.1%	growth, % of control at 0.1 µM (PC-3 [21]): 106%; growth, % of control at 1 µM (PC-3 [22]): 47.2%; growth, % of control at 0.3 µM (PC-3 [23]): 108%; growth, % of control at 3 µM (PC-3 [24]): 0.07%; growth, % of control at 0.1 µM (HCT-15 [25]): 98.7%; growth, % of control at 10 µM (PC-3 [26]): -16.5%; growth, % of control at 0.3 µM (HCT-15 [27]): 99.1%; growth, % of control at 3 µM (HCT-15 [28]): 54%; growth, % of control at 1 µM (HCT-15 [29]): 82.7%; growth, % of control at 10 µM (HCT-15 [30]): 29.6%; Activity [31]: Active; GI50 (NCI-H23 [32]): 960 nM; GI50 (NUGC-3 [33]): 190 nM; GI50 (HCT-15 [34]): 1980 nM; GI50 (ACHN [35]): 760 nM; GI50 (MDA-MB-231 [36]): 1420 nM; GI50 (PC-3 [37]): 490 nM
CCCCCCCCCCCCCCCC(=O)N(C)CC[N+](C)(C)C	57.7%	77.8%	26.8%	-19.4%	-0.9%	106%	100%	81.6%	-1.2%	41.4%	87.9%	42%	85.9%	31.9%	-19.1%	102%	101%	58%	83.7%	0%	growth, % of control at 0.1 µM (PC-3 [21]): 96%; growth, % of control at 1 µM (PC-3 [22]): 37.3%; growth, % of control at 0.3 µM (PC-3 [23]): 87.9%; growth, % of control at 3 µM (PC-3 [24]): 3.5%; growth, % of control at 0.1 µM (HCT-15 [25]): 99.9%; growth, % of control at 10 µM (PC-3 [26]): -15.8%; growth, % of control at 0.3 µM (HCT-15 [27]): 102%; growth, % of control at 3 µM (HCT-15 [28]): 45.2%; growth, % of control at 1 µM (HCT-15 [29]): 79.6%; growth, % of control at 10 µM (HCT-15 [30]): 15.8%; Activity [31]: Active; GI50 (NCI-H23 [32]): 1540 nM; GI50 (NUGC-3 [33]): 170 nM; GI50 (HCT-15 [34]): 1310 nM; GI50 (ACHN [35]): 450 nM; GI50 (MDA-MB-231 [36]): 1140 nM; GI50 (PC-3 [37]): 370 nM
